For series [1], the system named is Trypanosoma cruzi. Kind of series: Trypanocidal activity against bloodstream trypomastigote stage of Trypanosoma cruzi Y after 24 hrs by Neubauer chamber method. In kind it is functional.
Series [2] can be described thus: Cytotoxicity against human PBMC assessed as decrease in cell viability after 72 hrs by MTT assay. The settings on record: PBMC (peripheral blood mononuclear cells). The series is classed as toxicity, cell-based. Background: Tetrazolium dyes change colour on reduction, which living cells bring about.
The nature of series [3]: Cytotoxicity against human PC3 cells assessed as decrease in cell viability after 72 hrs by MTT assay. The settings on record: PC-3, 72 h. The series is classed as functional, cell-based.
A short description of series [4]: Cytotoxicity against human HCT116 cells assessed as decrease in cell viability after 72 hrs by MTT assay. The series is classed as functional, cell-based. The settings on record: HCT-116, 72 h.
A short description of series [5]: Cytotoxicity against human HL60 cells assessed as decrease in cell viability after 72 hrs by MTT assay. The series is classed as functional, cell-based. The settings on record: HL-60, 72 h.
Series [6] is described as follows: Cytotoxicity against human MDA-MB-435 cells assessed as decrease in cell viability after 72 hrs by MTT assay. The series is classed as functional, cell-based. The settings on record: MDA-MB-435, 72 h.
Series [7] in a line: Cytotoxicity against human SF295 cells assessed as decrease in cell viability after 72 hrs by MTT assay. In kind it is functional, cell-based. The settings on record: SF-295, 72 h.
Series [8] has as its system Trypanosoma cruzi. The experiment in a line: Trypanocidal activity against bloodstream form of Trypanosoma cruzi after 24 hrs. The series is classed as functional.
In series [9] the test system is PC-3. Kind of series: Selectivity index, ratio of IC50 for human PBMC to IC50 for human PC3 cells.
In series [10] the test system is HCT-116. The experiment in a line: Selectivity index, ratio of IC50 for human PBMC to IC50 for human HCT116 cells.
Series [11] deals with HL-60. Kind of series: Selectivity index, ratio of IC50 for human PBMC to IC50 for human HL60 cells.
Series [12] can be described thus: Selectivity index, ratio of IC50 for human PBMC to IC50 for human MDA-MB-435 cells.
Series [13] has as its system SF-295. The experiment in a line: Selectivity index, ratio of IC50 for human PBMC to IC50 for human SF295 cells.

These results are taken from ChEMBL document CHEMBL3861945 (Medchemcomm, 2016).

A word on the pIC50: it is the IC50 on a negative log10 scale, so that one unit is a factor of ten. As usually defined, the IC50 is the concentration that inhibits the measured activity by half.

Each structure is given as a SMILES string. pIC50: −log10 of the molar value. Some results are limits rather than exact numbers.

Regarding `O=C1C(=O)c2ccccc2C2=C1CC(Cn1nncc1-c1ccccc1)O2` (configuration not stated), the pIC50 in [1] was less than 3.00; in [3], 5.16; in series [4], 5.32; in [5], 5.39; in series [6], 5.21; in series [7] it was 5.11. Besides, in [2], the IC50 at 72 h amounted to 5.71 µM.

Consider `O=C1C(=O)c2ccccc2C2=C1CC(Cn1cc(C3(O)CCCCC3)nn1)O2` (configuration not stated), for which the IC50 at 72 h in series [2] was more than 13.2 µM. In addition, the pIC50 is 4.91 in [3]; 4.90 in series [4]; 4.96 in series [5]; 4.99 in series [6]; 4.96 in series [7]; 4.05 in series [8].

Regarding `CC1(C)OC2=C(C(=O)c3ccccc3C2=O)C1n1nncc1-c1ccccc1` (configuration not stated), the pIC50 in series [1] was less than 3.00; in series [3], 5.51; in series [4], 5.60; in series [5] it was 5.59; in series [6] it was 5.43; in series [7] it was 5.55. Also, in series [2], the IC50 at 72 h came to 7.57 µM.

As for `O=C1C2=C(OC(Cn3nncc3-c3ccccc3)C2)C(=O)c2ccccc21` (configuration not stated), the pIC50 in series [1] is less than 3.00; in series [3] it was less than 4.85; in series [4] it was 5.47; in series [5] it was 5.52; in series [6], less than 4.85; in series [7] it was less than 4.85. Moreover, the IC50 at 72 h in series [2] is more than 14 µM.

Turning to `CC1(C)OC2=C(C(=O)C(=O)c3ccccc32)C1n1nncc1-c1ccccc1` (configuration not stated), the pIC50 in series [1] is 3.95; in series [3], 5.87; in series [4], 5.86; in series [5], 5.83; in series [6] it was 5.76; in series [7], 5.63. Further, the IC50 at 72 h in [2] stood at 2.02 µM. Also, the “Ratio IC50” value in [9] came out at 1.5.

On to `CC1(C)CC(n2cc(-c3ccccc3)nn2)C2=C(O1)C(=O)c1ccccc1C2=O` (configuration not stated), for which the pIC50 was less than 3.00 in series [1]; less than 4.89 in [3]; 5.02 in series [4]; 5.10 in series [5]; less than 4.89 in series [6]; less than 4.89 in [7]. Moreover, the IC50 at 72 h in [2] is more than 13 µM.

With `O=C1C2=C(OC(Cn3nnc(-c4ccccc4)c3I)C2)C(=O)c2ccccc21` (configuration not stated), the pIC50 in [1] was less than 3.00; in series [3], less than 4.99; in [4] it was 5.22; in [5], 5.27; in [6], less than 4.99; in series [7], less than 4.99. The IC50 at 72 h in series [2] is more than 10.3 µM.

Regarding `O=C1C(=O)c2ccccc2C2=C1CC(Cn1nnc(-c3ccccc3)c1I)O2` (configuration not stated), the pIC50 in series [1] was less than 3.00; in [3], 5.66; in series [4] it was 5.38; in series [5], 5.62; in series [6], 5.25; in series [7], 5.43. The IC50 at 72 h in series [2] was determined as 3.68 µM.

Consider `CC1(C)CC(n2nnc(-c3ccccc3)c2I)C2=C(O1)C(=O)c1ccccc1C2=O` (configuration not stated), for which the pIC50 in [1] is less than 3.00; in series [3] it was less than 5.01; in [4] it was less than 5.01; in series [5], less than 5.01; in series [6] it was less than 5.01; in [7], less than 5.01. For the same compound, the IC50 at 72 h in [2] was more than 9.78 µM.

With `O=C1C2=C(OC(Cn3cc(-c4ccccc4)nn3)C2)C(=O)c2ccccc21` (configuration not stated), the pIC50 in series [1] was less than 3.00; in series [3], less than 4.85; in series [4], 5.06; in series [5], 5.10; in series [6], less than 4.85; in [7] it was less than 4.85. Moreover, the IC50 at 72 h in [2] was more than 14 µM.

Turning to `O=C1C(=O)c2ccccc2C2=C1CC(Cn1cc(C3CCCCC3)nn1)O2` (configuration not stated), the IC50 at 72 h in series [2] was 5.17 µM. Further, the pIC50 in [3] is 5.59; in [4], 5.66; in series [5] it was 5.65; in series [6] it was 5.92; in series [7], 5.72; in series [8], 3.67.

`O=C1C(=O)c2ccccc2C2=C1CC(Cn1cc(C3=CCCCC3)nn1)O2` (configuration not stated): in series [2], the IC50 at 72 h amounted to 5.31 µM. The pIC50 is 5.36 in [3]; 5.40 in series [4]; 5.48 in [5]; 5.57 in [6]; 5.63 in [7]; 4.26 in [8].

Turning to `O=C1C(=O)c2ccccc2C2=C1CC(Cn1nnc(-c3ccccc3)c1-c1ccccc1)O2` (configuration not stated), the pIC50 in series [1] was less than 3.00; in [3], 5.89; in [4], 5.77; in [5] it was 5.94; in [6], 5.93; in series [7], 5.84. Also, in [2], the IC50 at 72 h is 2.16 µM.

Turning to `CC1(C)OC2=C(C(=O)C(=O)c3ccccc32)[C@H](n2nnc(-c3ccccc3)c2I)[C@H]1Br`, the pIC50 was less than 3.00 in series [1]; less than 5.07 in series [3]; less than 5.07 in series [4]; less than 5.07 in [5]; less than 5.07 in series [6]; less than 5.07 in series [7]. In series [2], the IC50 at 72 h was more than 8.48 µM.

For `CC1(C)CC(n2nncc2-c2ccccc2)C2=C(O1)C(=O)c1ccccc1C2=O` (configuration not stated), the pIC50 in [1] was less than 3.00; in [3], less than 4.89; in [4], less than 4.89; in [5], less than 4.89; in [6] it was less than 4.89; in [7] it was less than 4.89. Further, the IC50 at 72 h in [2] is more than 13 µM.

In the case of `CC1(C)OC2=C(C(=O)c3ccccc3C2=O)C1n1nnc(-c2ccccc2)c1I` (configuration not stated), the pIC50 was less than 3.00 in series [1]; 5.24 in series [3]; 5.29 in series [4]; 5.37 in series [5]; 5.24 in series [6]; 5.34 in series [7]. For the same compound, the IC50 at 72 h in series [2] is 7.86 µM.

For `CCCCCCc1cn(CC2CC3=C(O2)c2ccccc2C(=O)C3=O)nn1` (configuration not stated), the IC50 at 72 h in [2] stood at 5.99 µM. Moreover, the pIC50 is 5.47 in [3]; 5.67 in series [4]; 5.69 in series [5]; 5.72 in [6]; 5.57 in [7]; 4.06 in [8].

For `O=C1C(=O)c2ccccc2C2=C1CC(Cn1cc(-c3ccccc3)nn1)O2` (configuration not stated), the pIC50 in series [1] is less than 3.00; in [3], 5.68; in series [4], 5.62; in series [5], 5.45; in [6], 5.51; in series [7] it was 5.49. Also, the IC50 at 72 h in [2] was 3.24 µM.

Take `CC1(C)OC2=C(C(=O)C(=O)c3ccccc32)[C@H](n2nncc2-c2ccccc2)[C@H]1Br`: the pIC50 was 3.90 in series [1]; 6.39 in series [3]; 6.33 in series [4]; 6.18 in series [5]; 6.11 in series [6]; 5.80 in series [7]. The IC50 at 72 h in series [2] was 1.23 µM. Further, the “Ratio IC50” value in series [9], in series [10], in series [11], in [12] and in [13] was 0.8 - 3 throughout.

On to `CC1(C)OC2=C(C(=O)C(=O)c3ccccc32)C1n1nnc(-c2ccccc2)c1I` (configuration not stated), for which the pIC50 in [1] was less than 3.00; in [3], 5.56; in [4] it was 5.47; in series [5] it was 5.59; in [6], 5.52; in series [7] it was 5.55. Besides, the IC50 at 72 h in series [2] is 4.08 µM.

`CC1(C)CCC2=C(O1)c1ccccc1C(=O)C2=O` [LAPACHONE]: the pIC50 in series [1] is 3.41.
